For data set [1], the system named is adhesion of PMN leukocytes to BAEC monolayer stimulated with TNF-α (selectin-mediated). Nature of the data set: Static adhesion assay (leukocyte adhesion to endothelial monolayer). In kind it is cell-based, bovine. The note with it: for potency in the static adhesion assay, bimosiamose compared with T3: bimosiamose at 600 μM versus T3 at 100 μM. As to the method:
The reduction of adhesion of adhering leukocytes to the monolayer stimulated with TNF-α was set to 0%, the one in the untreated control-wells was set to 100%.
Following seeding in 24 well-plates, the examination of the adhesion was performed using (bovine aorta endothelial cells) BAEC monolayers of the cell passage 1-3 seven days. Before performing the assay, the completeness and the uniformity of the BAEC-monolayer was microscopically ensured. The culture medium (500 ml of medium M199, to which 6 ml of penicillin/streptomycin solution 1%, 6 ml L-glutamine (200 mM) and 100 ml (20%) of fetal calf serum, Sigma, Munich, were added) was removed, and the monolayer was washed twofold with DPBS (1000 μl/well, 37° C.). Subsequent to washing, the cells were treated with the cell culture medium containing 20 ng/ml of recombinant tumor necrosis-factor-alpha (TNFα) (in the presence of the respective test substance, dissolved in dimethylsulfoxide (DMSO) or only with DMSO as vehicle) […] at 37° C. and 5% CO2 for 4 hours. After another twofold washing with DPBS (1000 μl/well, 37° C.) 900 μl of the culture medium and 100 μl of a PMN-suspension (10^6 cells per ml) were added per well, and incubated for 30 minutes at 37° C. and 5% CO2. Non-adherent cells were removed by twofold washing with DPBS (1000 μl/well, 37° C.). […]
The BAEC-sections were analyzed with an inverse Leica DM IRS-microscope (Leica, Bensheim, Germany) at 100-fold magnification. […] For the manual counting of PMNs, several randomly selected sections of 0.25 mm^2 in size from the centre of the respective well of the well-plate were counted. […] In order to do so, each PMN in the area as chosen was counted by a PC-mouse click, and the counted cells were labeled. […]
The analysis of the pictures was performed using the publicly available ImageJ-software (available at http://rsb.info.nih.gov/ij), installed on a standard-PC (Maxdata, Mergel, Germany). All pictures as obtained in a test run were grouped into an series, and then analyzed in an automated method using a specifically programmed macro. […]

The subject of data set [2] is MM6-cells. Description: XTT-viability test. In kind it is cell-based. As to conditions: after 1.5 hours, FIG. 3. As to the method: The XTT-assay (Cell Proliferation Kit II (XTT), Roche molekulare Biochemikalien, Mannheim, Germany) was used for the quantification of the anti-proliferative or cytotoxic effects of the substances as synthesized. The assay is based on the conversion of the yellow tetrazolium-salt XTT into an orange formazan-dye by metabolically active cells. The XTT-formazan-dye is soluble in aqueous solutions, and can be directly determined in a quantitative fashion with an ELISA-reader. The incubation time varies depending from the respective experimental setting (e.g. the kind of cell and the cellular concentrations used). Following the addition of the final XTT-reagent, the absorption was determined at 490 nm, at different points in time (e.g. 30 minutes, 4, 6, 8, 12, and 18 hours). All data were analyzed with Microsoft Excel. The IC50 values were calculated with the program GRAFIT, Erithacus Software Ltd., Great Britain.
Using the commercial available XTT-test kit, the cytotoxic behavior of substances with different structural elements against MM6-cells was examined after 1.5 hours. Structural elements that are responsible for the cytotoxicity were identified. The amide-function in combination with free carboxylic acid-functions was identified as particularly cytotoxic.

Data set [3] relates to selectins. The note with it: cited from earlier work.

Consider 4 compounds from patent US7485742B2, “Non-glycosidic and non-peptidic inhibitors of selectin, and the use thereof” (Johannes Gutenberg-Universität Mainz, priority 2004, dated 2009).

Each structure is given as a SMILES string.

As to `CCCCCCCCCCOc1cc(OCCCCCCCCCC)cc(OCCCCCCN(c2ccc(C(=O)O)cc2)c2ccc(C(=O)O)cc2)c1` [T21, 4-(N-(6-(3,5-bis(decyloxy)phenoxy)hexyl)-N-(4-carboxyl-phenyl)amino)benzoic acid], the “effect on the reduction of the adhesion (potency)” value in data set [1] (static assay, FIG. 1, leukocytes on TNF-α-stimulated BAEC monolayer, 10^-4-10^-7 mol/l tested) is given as “highly potent”. For the same compound, the “cytotoxic behavior (XTT)” value in data set [2] is listed as “completely non-toxic”.

For `CS(=O)(=O)c1ccc(C2=C(c3ccccc3)C(=O)OC2)cc1` [Rofecoxib], in data set [2], the “cytotoxic behavior (XTT)” value is given as “has cytotoxic effects”. In the case of `O=C(O)Cc1cccc(-c2cc(CCCCCCc3ccc(O[C@H]4O[C@H](CO)[C@@H](O)[C@H](O)[C@@H]4O)c(-c4cccc(CC(=O)O)c4)c3)ccc2O[C@H]2O[C@H](CO)[C@@H](O)[C@H](O)[C@@H]2O)c1` [bimosiamose, 1,6-bis[3-(3-carboxymethylphenyl)-4-(2-alpha-D-mannopyranosyloxy)phenyl]hexane], the “potency in the static adhesion assay, bimosiamose compared with T3” value in data set [1] is given as “about the same potency”. In addition, in data set [3], the “affinity to the selectins compared to sLeX” value is listed as “essentially higher affinity”.

Consider `CCCCCCCCCCOc1cc(OCCCCCCCCCC)cc(OCCCCCC(=O)N(c2ccc(C(=O)O)cc2)c2ccc(C(=O)O)cc2)c1` [T3, 6-(3,5-Didecyloxyphenoxy)-hexanoic acid-N,N-bis(4-carboxyphenyl)amide], for which the “potency in the static adhesion assay, bimosiamose compared with T3” value in data set [1] was “about the same potency”.
